Experimental data published in US20250263416A1, “SPPL2a INHIBITORS” (Incyte Corporation, priority 2024, published 2025).
“Also recorded” adds a separate entry of the source.

Assays:
[1] = In vivo epimerization and PK, statements covering all three preclinical models; parameters: species or system Sprague Dawley rats, beagle dogs, cynomolgus monkeys; conditions: for retention of deuterium in the process of epimerization: all species studied; for in vivo epimerization at the chiral carbon in the 7-membered ring: rat, monkey and dog models, PO; for exposures and PK (other than epimerization) across species: rats, monkeys, dogs
Method: These factors may lead to accumulation and potenial toxicity. The effect on epimerization by substitution at the chiral carbon was tested by comparing Example A, Example 1, and Example 29 in the following preclinical in vivo pharmacokinetic models: Sprague Dawley rats, beagle dogs, and cynomolgus monkeys.
Two groups of male Sprague Dawley rats (n=3 each) received either a single 10 mg/kg PO dose of Example A or Example 1 in a vehicle consisting of 0.5% methylcellulose in water. Blood samples were collected at 0.25, 0.5, 1, 2, 4, and 6 hours postdose.
Male Sprague Dawley rats (n=3 each) received a single 3 mg/kg PO dose of Example 29 in a vehicle consisting of 5% dimethylacetamide (DMAC) in 50 mM citrate buffer w/0.5% methylcellulose. Blood samples were collected at predose, 0.25, 0.5, 1, 2, 4, 6, 8, 12, and 24 hours postdose.
Three groups of male cynomolgus monkeys (n=2 each) received either a single 3 mg/kg PO dose of Example A, Example 1, or Example 29 in a vehicle consisting of 5% dimethylacetamide (DMAC) in 50 mM citrate buffer w/0.5% methylcellulose. Blood samples were collected at predose, 0.25, 0.5, 1, 2, 3, 4, 6, 8, 12, and 24 hours postdose.
Three groups of male beagle dogs (n=2 each) received either a single 3 mg/kg PO dose of Example A, Example 1, or Example 29 in a vehicle consisting of 5% dimethylacetamide (DMAC) in 50 mM citrate buffer w/0.5% methylcellulose. Blood samples were collected at predose, 0.25, 0.5, 1, 2, 3, 4, 6, 8, 12, 24 and 48 hours postdose.
All blood samples were collected using EDTA as the anticoagulant and centrifuged to obtain plasma. Plasma concentrations of Example A, Example 1, and their respective diastereomers were determined under non-GLP conditions using standard reverse phase LC-MS/MS bioanalytical methods. The individual plasma concentration-time data was used to determine the area under the curve (AUC) values using GraphPad Prism (v9.3.1).

human SPPL2a [2] = target: T1, human SPPL2a (Homo sapiens, UniProt Q8TCT8); assay: Nuclear translocation imaging assay for human SPPL2a (SPPL2a reporter U2OS cell line); format: cell-based; conditions: U2OS reporter cells, 24 h incubation
T1 construct: expressed in transfected cells; host or cells: U2OS (SPPL2a reporter cell line)
T1 sequence (Q8TCT8 26-520): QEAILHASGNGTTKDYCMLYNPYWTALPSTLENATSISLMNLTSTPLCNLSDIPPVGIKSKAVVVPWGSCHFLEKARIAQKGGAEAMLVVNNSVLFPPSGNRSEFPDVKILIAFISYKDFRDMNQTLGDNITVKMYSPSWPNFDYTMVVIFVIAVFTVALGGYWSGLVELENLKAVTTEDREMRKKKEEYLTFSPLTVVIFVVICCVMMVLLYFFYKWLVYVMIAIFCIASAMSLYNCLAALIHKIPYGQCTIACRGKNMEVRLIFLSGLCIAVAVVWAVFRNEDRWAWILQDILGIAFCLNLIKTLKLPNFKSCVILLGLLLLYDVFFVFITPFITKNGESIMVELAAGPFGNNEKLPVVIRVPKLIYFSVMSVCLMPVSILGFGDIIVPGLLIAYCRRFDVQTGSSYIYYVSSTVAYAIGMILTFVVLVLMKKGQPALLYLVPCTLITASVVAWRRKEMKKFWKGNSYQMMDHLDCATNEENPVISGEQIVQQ
Method: The nuclear translocation imaging assays for human SPPL2a were performed using an SPPL2a reporter U2OS cell line as previously described (Velcicky et al 2018, Zhang et al 2017). These cells stably express human SPPL2a and a doxycycline inducible eGFP TNFα (aa 1-76) NTF fusion protein (SPPL2a substrate). Both Example 1 and Example A were added at indicated concentrations and cells were incubated for 24 h, washed, and fixed. Nuclei were stained with DAPI. Images were acquired on a confocal fluorescence microscope system LSM-800 (Carl Zeiss). Image data was analyzed by using mid-section from Z-stack images of at least 10 individual cells per sample. All data is presented as mean+SEM. Statistical significance was calculated with the ANOVA test using GraphPad Prism™ 10.

human SPPL2a [3] = target: T1, human SPPL2a; assay: Western blot assay of TNFα-GFP cleavage in U2OS cells expressing human SPPL2a; format: cell-based; conditions: SPPL2a-U2OS reporter cells, 24 h
Method: To confirm the cleavage of TNF-α in the U2OS cells that express human SPPL2a, a western blot assay was performed. The same cell line used for the imaging assays were used; these cells express human SPPL2a constitutively and an eGFP-labelled TNFα (aa 1-76) NTF substrate under a doxycycline promotor. In the presence of SPPL2a activity, TNFα-GFP is cleaved at the NTF, resulting in a single 54-56 kDa band (lower MW). If SPPL2a activity is inhibited, TNFα GFP processing is abrogated resulting in a higher molecular weight band (60-62 kDa; complete inhibition) and or both 54-56 kDa and 60-62 kDa bands (incomplete inhibition, smeared appearance) on the blot. Both Example 1 and Example A were added at indicated concentrations, and cells were incubated for 24 h with the inhibitors. Total cell lysated were prepared in ice cold-1X RIPA buffer containing protease inhibitor cocktail (AKR-190, Cell BioLabs). Lysates were collected and quantified for the total protein on NanoDrop using BCA kit (23227, Thermo Scientific). […] To detect cleaved and un-cleaved TNFα-GFP fragments, anti-GFP antibody (AF4240, R&D Biosystems) was used as a primary antibody and detected using anti-goat detection module (DM-006, ProteinSimple) according to the manufacturer's protocol. Data was analyzed using ProteinSimple compass software.

[4] = tested on: Imiquimod (IMQ)-induced psoriasis mouse model; assay: Imiquimod (IMQ)-induced psoriasis mouse model; format: in vivo, BALB/c female mice; conditions: 15 mg/kg PO BID
Method: A comparative study was performed to evaluate the efficacy of the deuterated-inhibitor Example 1 to Example A in the mouse model of psoriasis. Briefly, BALB/c female mice (7-8 week age) were shaved on the dorsal skin and 62.5 mg of IMQ cream was applied daily until day 9. Simultaneously, 15 mg of IMQ cream was applied on one ear daily until day 9. Example 1 and Example A were given orally (PO) at 15 mg/kg, BID. Mice were monitored and clinical signs of psoriasis were recorded (PSI score), both on the dorsal skin (erythema, scaling & thickness) and on the IMQ-applied ear (thickness). All data is presented as mean+SEM. For comparison of more than two groups, ANOVA was used. Pearson product moment correlation was used to test for correlations. All statistical analysis was performed using GraphPad Prism™ 10.

[5] = tested on: Collagen-Induced Arthritis (CIA) mouse model; assay: Collagen-induced arthritis (CIA) mouse model; format: in vivo, DBA-1 mice; conditions: 50 mg/kg dose, compared to the vehicle
From the text: Female DBA-1 mice (8-9 weeks old) were used in the CIA mouse model. This model is widely used to evaluate efficacy of immunomodulatory drugs on autoimmune diseases, such as arthritis. DBA/1 mice develop collagen-induced arthritis (CIA) after immunization with bovine type II collagen emulsified in complete Freund's adjuvant (CFA), followed by a booster dose 21 days later. Both the immunizations were given subcutaneously, approximately 25 mm from the base of the tail on opposite sides. Immunizations were performed under a short duration isoflurane anesthesia. Mice were evaluated for the disease progression up to 45 days. […] Statistical significance was determined using Two-way ANOVA with multiple comparison tests to compare all groups to the vehicle.

Row | SMILES | retention of deuterium in the process of epimerization [1] | in vivo epimerization at the chiral carbon in the 7-membered ring [1] | exposures and PK (other than epimerization) across species [1] | inhibition of nuclear translocation of TNFα-GFP (human SPPL2a [2]) | TNFα-GFP cleavage inhibition (SPPL2a activity inhibition) (human SPPL2a [3]) | dorsal PSI scores [4] | ear thickness measurements [4] | clinical signs of psoriasis disease ([4]; compared to vehicle group) | Mouse IL-12 level in plasma ([4]; terminal day) | Mouse TNFα level in plasma ([4]; terminal day) | clinical signs of CIA [5]
1 | [2H][C@@]1(NC(=O)[C@H](C)CNC(=O)c2sc(C(=O)NC)nc2C)C(=O)N2CCCN2Cc2ccccc21 [Example 1, N^2,4-Dimethyl-N^5—((R)-2-methyl-3-oxo-3-(((S)-11-oxo-2,3,10,11-tetrahydro-1H,5H-benzo[d]pyrazolo[1,2-a][1,2]diazepin-10-yl-10-d)amino)propyl)thiazole-2,5-dicarboxamide] | retained | reduction of in vivo epimerization; also recorded: observed in all three models | consistent | inhibited; also recorded: comparable and significant TNFα-GFP inhibition of nuclear translocation | SPPL2a activity inhibition; also recorded: Comparable and significant TNFα-GFP cleavage inhibition | alleviate | alleviate | significantly reduced | significant reduction | significant reduction | significantly reduced
2 | [2H]C([2H])([2H])NC(=O)c1nc(C)c(C(=O)NC[C@@H](C)C(=O)N[C@]2([2H])C(=O)N3CCCN3Cc3ccccc32)s1 [Example 29, 4-Methyl-N2-(methyl-d3)—N^5—((R)-2-methyl-3-oxo-3-(((S)-11-oxo-2,3,10,11-tetrahydro-1H,5H-benzo[d]pyrazolo[1,2-a][1,2]diazepin-10-yl-10-d)amino)propyl)thiazole-2,5-dicarboxamide] | retained | observed in all three models | consistent | – | – | – | – | – | – | – | –
